System: SREBP pathway
Assay: SREBP luciferase reporter gene system (SRE-luciferase assay)
Type: cell-based, human
Settings: Homo sapiens, Huh-7, 16 h, Huh-7/SRE-luc cells, sterol-deficient medium, 0.01-10 µM
In short: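 Readout was SRE-driven luciferase normalised to GFP fluorescence in lysates of stably transfected Huh-7/SRE-luc hepatoma cells. Compounds (0.01, 0.03, 0.1, 0.3, 1.0, 3.0, 10 µM; DMSO control) were applied for 16 h in sterol-depleted medium with 2 µM lovastatin and 10 µM mevalonate; IC50 from variable-slope fit.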

## C[C@H](CCCC(O)c1cccc(OC(F)(F)F)c1)[C@H]1CC[C@H]2C3=C(F)C[C@H]4[C@@H](O)[C@@H](O)CC[C@]4(C)[C@H]3CC[C@]12C (stereo partly drawn) [Compound 88, (1R,3aR,5aR,6R,7S,9aR,9bR,11aR)-4-fluoro-1-[(2R)-6-hydroxy-6-{3-[(trifluoromethyl)oxy]phenyl}hexan-2-yl]-9a,11a-dimethyl-2,3,3a,5,5a,6,7,8,9,9a,9b,10,11,11a-tetradecahydro-1H-cyclopenta[1,2-a]phenanthrene-6,7-diol]
  IC50: 0.622 µM

## C[C@H](CCCC(O)c1nccs1)[C@H]1CC[C@H]2C3=C(F)C[C@H]4[C@@H](O)[C@@H](O)CC[C@]4(C)[C@H]3CC[C@]12C (stereo partly drawn) [Compound 90, (1R,3aR,5aR,6R,7S,9aR,9bR,11aR)-4-fluoro-1-[(2R)-6-hydroxy-6-(1,3-thiazol-2-yl)hexan-2-yl]-9a,11a-dimethyl-2,3,3a,5,5a,6,7,8,9,9a,9b,10,11,11a-tetradecahydro-1H-cyclopenta[1,2-a]phenanthrene-6,7-diol]
  IC50: 0.379 µM

## C[C@H](CCC[C@H](O)c1ccccn1)[C@H]1CC[C@H]2[C@H]3[C@H](CC[C@]12C)[C@@]1(C)CC[C@H](O)[C@H](O)[C@@H]1CC3(F)F [Compound 91, (1R,3aS,3bS,5aR,6R,7S,9aR,9bS,11aR)-4,4-difluoro-1-[(2R,6S)-6-hydroxy-6-(pyridin-2-yl)hexan-2-yl]-9a,11a-dimethylhexadecahydro-1H-cyclopenta[1,2-a]phenanthrene-6,7-diol]
  IC50: 0.378 µM

## C[C@H](CCCC1(O)CC1)[C@H]1CC[C@H]2[C@H]3[C@H](CC[C@]12C)[C@@]1(C)CC[C@H](O)[C@H](O)[C@@H]1CC3(F)F [Compound 93, (1R,3aS,3bS,5aR,6R,7S,9aR,9bS,11aR)-4,4-difluoro-1-[(2R)-5-(hydroxycyclopropyl)pentan-2-yl]-9a,11a-dimethylhexadecahydro-1H-cyclopenta[1,2-a]phenanthrene-6,7-diol]
  IC50: 0.613 µM

## C[C@H](CCC(=O)N(C)c1ccccc1F)[C@H]1CC[C@H]2C3=C(F)C[C@H]4[C@@H](O)[C@@H](O)CC[C@]4(C)[C@H]3CC[C@]12C [Compound 96, (4R)-4-[(1R,3aR,5aR,6R,7S,9aR,9bR,11aR)-4-fluoro-6,7-dihydroxy-9a,11a-dimethyl-2,3,3a,5,5a,6,7,8,9,9a,9b,10,11,11a-tetradecahydro-1H-cyclopenta[1,2-a]phenanthren-1-yl]-N-(2-fluorophenyl)-N-methylpentanamide]
  IC50: 0.34 µM

## C[C@H](CCCC(O)c1ncco1)[C@H]1CC[C@H]2[C@H]3[C@H](CC[C@]12C)[C@@]1(C)CC[C@H](O)[C@H](O)[C@@H]1CC3(F)F (stereo partly drawn) [Compound 99, (1R,3aS,3bS,5aR,6R,7S,9aR,9bS,11aR)-4,4-difluoro-1-[(2R)-6-hydroxy-6-(1,3-oxazol-2-yl)hexan-2-yl]-9a,11a-dimethylhexadecahydro-1H-cyclopenta[1,2-a]phenanthrene-6,7-diol]
  IC50: 0.243 µM

## COc1cc(Cl)ccc1[C@H](O)CCC[C@@H](C)[C@H]1CC[C@H]2C3=C(F)C[C@H]4[C@@H](O)[C@@H](O)CC[C@]4(C)[C@H]3CC[C@]12C [Compound 110, (1R,3aR,5aR,6R,7S,9aR,9bR,11aR)-1-[(2R,6R)-6-(4-chloro-2-methoxyphenyl)-6-hydroxyhexan-2-yl]-4-fluoro-9a,11a-dimethyl-2,3,3a,5,5a,6,7,8,9,9a,9b,10,11,11a-tetradecahydro-1H-cyclopenta[1,2-a]phenanthrene-6,7-diol]
  IC50: 1.13 µM

## COc1cc(Cl)ccc1[C@@H](O)CCC[C@@H](C)[C@H]1CC[C@H]2C3=C(F)C[C@H]4[C@@H](O)[C@@H](O)CC[C@]4(C)[C@H]3CC[C@]12C [Compound 111, (1R,3aR,5aR,6R,7S,9aR,9bR,11aR)-1-[(2R,6S)-6-(4-chloro-2-methoxyphenyl)-6-hydroxyhexan-2-yl]-4-fluoro-9a,11a-dimethyl-2,3,3a,5,5a,6,7,8,9,9a,9b,10,11,11a-tetradecahydro-1H-cyclopenta[1,2-a]phenanthrene-6,7-diol]
  IC50: 1.48 µM

## COc1cc(Cl)ccc1[C@@H](O)CCC[C@@H](C)[C@H]1CC[C@H]2[C@H]3[C@H](CC[C@]12C)[C@@]1(C)CC[C@H](O)[C@H](O)[C@@H]1CC3(F)F [Compound 112, (1R,3aS,3bS,5aR,6R,7S,9aR,9bS,11aR)-1-[(2R,6S)-6-(4-chloro-2-methoxyphenyl)-6-hydroxyhexan-2-yl]-4,4-difluoro-9a,11a-dimethylhexadecahydro-1H-cyclopenta[1,2-a]phenanthrene-6,7-diol]
  IC50: 0.318 µM

## COc1cccc(OC)c1C(O)CCC[C@@H](C)[C@H]1CC[C@H]2C3=C(F)C[C@H]4[C@@H](O)[C@@H](O)CC[C@]4(C)[C@H]3CC[C@]12C (stereo partly drawn) [Compound 115, (1R,3aR,5aR,6R,7S,9aR,9bR,11aR)-1-[(2R)-6-(2,6-dimethoxyphenyl)-6-hydroxyhexan-2-yl]-4-fluoro-9a,11a-dimethyl-2,3,3a,5,5a,6,7,8,9,9a,9b,10,11,11a-tetradecahydro-1H-cyclopenta[1,2-a]phenanthrene-6,7-diol]
  IC50: 0.613 µM

## COc1cccc(OC)c1C(O)CCC[C@@H](C)[C@H]1CC[C@H]2[C@H]3[C@H](CC[C@]12C)[C@@]1(C)CC[C@H](O)[C@H](O)[C@@H]1CC3(F)F (stereo partly drawn) [Compound 116, (1R,3aS,3bS,5aR,6R,7S,9aR,9bS,11aR)-1-[(2R)-6-(2,6-dimethoxyphenyl)-6-hydroxyhexan-2-yl]-4,4-difluoro-9a,11a-dimethylhexadecahydro-1H-cyclopenta[1,2-a]phenanthrene-6,7-diol]
  IC50: 0.177 µM

## COc1cccc(F)c1C(O)CCC[C@@H](C)[C@H]1CC[C@H]2[C@H]3[C@H](CC[C@]12C)[C@@]1(C)CC[C@H](O)C(=O)[C@@H]1CC3(F)F (stereo partly drawn) [Compound 124, (1R,3aS,3bS,5aR,7S,9aR,9bS,11aR)-4,4-difluoro-1-[(2R)-6-(2-fluoro-6-methoxyphenyl)-6-hydroxyhexan-2-yl]-7-hydroxy-9a,11a-dimethylhexadecahydro-1H-cyclopenta[1,2-a]phenanthren-6-one]
  IC50: 0.064 µM

## C[C@H](CCC1CC(=O)C1)[C@H]1CC[C@H]2[C@@H]3CC[C@H]4C[C@@H](O)CC[C@]4(C)[C@H]3CC[C@]12C [Compound 129, 3-[(3R)-3-[(1R,3aS,3bR,5aS,7S,9aS,9bS,11aR)-7-hydroxy-9a,11a-dimethylhexadecahydro-1H-cyclopenta[1,2-a]phenanthren-1-yl]butyl]cyclobutan-1-one]
  IC50: 0.32 µM

## COc1cc(F)ccc1[C@H](O)CCC[C@@H](C)[C@H]1CC[C@H]2C3=C(F)C[C@H]4[C@@H](O)[C@@H](O)CC[C@]4(C)[C@H]3CC[C@]12C [Compound 132, (1R,3aR,5aR,6R,7S,9aR,9bR,11aR)-4-fluoro-1-[(2R,6R)-6-(4-fluoro-2-methoxyphenyl)-6-hydroxyhexan-2-yl]-9a,11a-dimethyl-2,3,3a,5,5a,6,7,8,9,9a,9b,10,11,11a-tetradecahydro-1H-cyclopenta[1,2-a]phenanthrene-6,7-diol]
  IC50: 0.096 µM

## COc1cc(F)ccc1[C@@H](O)CCC[C@@H](C)[C@H]1CC[C@H]2C3=C(F)C[C@H]4[C@@H](O)[C@@H](O)CC[C@]4(C)[C@H]3CC[C@]12C [Compound 133, (1R,3aR,5aR,6R,7S,9aR,9bR,11aR)-4-fluoro-1-[(2R,6S)-6-(4-fluoro-2-methoxyphenyl)-6-hydroxyhexan-2-yl]-9a,11a-dimethyl-2,3,3a,5,5a,6,7,8,9,9a,9b,10,11,11a-tetradecahydro-1H-cyclopenta[1,2-a]phenanthrene-6,7-diol]
  IC50: 0.095 µM

## C[C@H](CCC1CC(=NO)C1)[C@H]1CC[C@H]2[C@@H]3CC[C@H]4C[C@@H](O)CC[C@]4(C)[C@H]3CC[C@]12C (stereo partly drawn) [Compound 135, {3-[(3R)-3-[(1R,3aS,3bR,5aS,7S,9aS,9bS,11aR)-7-hydroxy-9a,11a-dimethylhexadecahydro-1H-cyclopenta[1,2-a]phenanthren-1-yl]butyl]cyclobutylidene}hydroxylamine]
  IC50: 4.03 µM

## C[C@H](CCCC(O)c1c(F)ccnc1F)[C@H]1CC[C@H]2C3=C(F)C[C@H]4[C@@H](O)[C@@H](O)CC[C@]4(C)[C@H]3CC[C@]12C (stereo partly drawn) [Compound 145, (1R,3aR,5aR,6R,7S,9aR,9bR,11aR)-1-[(2R)-6-(2,4-difluoropyridin-3-yl)-6-hydroxyhexan-2-yl]-4-fluoro-9a,11a-dimethyl-2,3,3a,5,5a,6,7,8,9,9a,9b,10,11,11a-tetradecahydro-1H-cyclopenta[1,2-a]phenanthrene-6,7-diol]
  IC50: 0.35 µM

## C[C@H](CCCC(O)c1c(F)ccnc1F)[C@H]1CC[C@H]2[C@H]3[C@H](CC[C@]12C)[C@@]1(C)CC[C@H](O)[C@H](O)[C@@H]1CC3(F)F (stereo partly drawn) [Compound 146, (1R,3aS,3bS,5aR,6R,7S,9aR,9bS,11aR)-1-[(2R)-6-(2,4-difluoropyridin-3-yl)-6-hydroxyhexan-2-yl]-4,4-difluoro-9a,11a-dimethylhexadecahydro-1H-cyclopenta[1,2-a]phenanthrene-6,7-diol]
  IC50: 0.16 µM

## C[C@H](CCCC(O)c1ccc(F)nc1F)[C@H]1CC[C@H]2C3=C(F)C[C@H]4[C@@H](O)[C@@H](O)CC[C@]4(C)[C@H]3CC[C@]12C (stereo partly drawn) [Compound 147, (1R,3aR,5aR,6R,7S,9aR,9bR,11aR)-1-[(2R)-6-(2,6-difluoropyridin-3-yl)-6-hydroxyhexan-2-yl]-4-fluoro-9a,11a-dimethyl-2,3,3a,5,5a,6,7,8,9,9a,9b,10,11,11a-tetradecahydro-1H-cyclopenta[1,2-a]phenanthrene-6,7-diol]
  IC50: 0.19 µM

## C[C@H](CCCC(O)c1ccc(F)nc1F)[C@H]1CC[C@H]2[C@H]3[C@H](CC[C@]12C)[C@@]1(C)CC[C@H](O)[C@H](O)[C@@H]1CC3(F)F (stereo partly drawn) [Compound 148, (1R,3aS,3bS,5aR,6R,7S,9aR,9bS,11aR)-1-[(2R)-6-(2,6-difluoropyridin-3-yl)-6-hydroxyhexan-2-yl]-4,4-difluoro-9a,11a-dimethylhexadecahydro-1H-cyclopenta[1,2-a]phenanthrene-6,7-diol]
  IC50: 0.08 µM
